Data on 2 compounds can be found in patent US10213445B2, “Compositions and methods of diazeniumdiolate-based prodrugs for treating cancer” (ARIZONA BOARD OF REGENTS ON BEHALF OF THE UNIVERSITY OF …, priority 2014, dated 2019).

One assay relates to MDA-MB-231 cells. The assay is described as follows: Alkaline Comet assay of DNA damage. The format is cell-based, human. The conditions noted are these: 75 μM, 8 hours, 37° C. The method, then:
Tail length: mean±SEM, n≥150.
Autoxidation of both NO and HNO leads to species that are capable of damaging DNA. Conversion of NO to N2O3 can induce mutations through base deamination) while the product of the reaction of HNO with O2 can oxidize and cleave DNA. To investigate the possibility of RNS-induced DNA damage as a mechanism of cytotoxicity, the effect of the NONO-aspirin prodrugs was studied with the alkaline Comet assay in MDA-MB-231 cells. After 8 hours, the damage induced by treatment with 50 μM IPA/NO-aspirin was significant (FIG. 7A) and similar to the H2O2 positive control (FIG. 7C). […] This may be an important factor in the observed enhanced cytotoxicity of IPA/NO-aspirin. In particular, IPA/NO-aspirin is able to damage DNA (FIG. 7) including inducing double strand breaks, in a manner similar to radiation therapy and chemotherapies such as doxorubicin.

Assay [1] deals with cleaved PARP in MDA-MB-231 cells. The assay is described as follows: PARP cleavage by Western blot. As to conditions: 1-44 h, preliminary analysis. The format is cell-based, human. The method, then:
The cells were treated with 50 μM IPA/NO-aspirin (blue) or 75 μM DEA/NO-aspirin (green), respectively at 37° C., and protein was collected at various time points (1-44 h). Lanes 1-6 (20 μg of protein): IPA/NO-aspirin at 1, 3, 6, 10, 20, 44 h; […]: DEA/NO-aspirin at 1, 6, 10, 20, 30, 44 h; Lane 15: control. Cleaved PARP levels at different time points were quantified by Western blot with respect to control, which was treated as 100%. HPRT was used as the loading control.
Since a number of chemotherapies and radiation therapy are based on inducing DNA damage in cancer cells, inhibition of PARP by HNO donors may increase the efficacy of these treatments. Furthermore, IPA/NO-aspirin is able to not only induce DNA damage but also to impede DNA repair.
(A western blot detects proteins with antibodies after separation by electrophoresis.)

Another assay has as its system caspase-3. The assay is described as follows: Caspase-3 activity in breast cancer cells. The class given is cell-based, human. As to conditions: MDA-MB-231, MDA-MB-468, MCF-7; 0-100 μM, 24 h, 37° C. Here is the method:
The cells were treated with various concentrations (0, 25, 50, 100 μM) of IPA/NO-aspirin (blue) or DEA/NO-aspirin (green) for 24 h at 37° C. Caspase-3 activity was determined by recording the fluorescence ( ? 485 nm, ? 535 nm) of the product formed by cleavage of the substrate, N-Ac-DEVD-N′-MC-R11. Data are plotted as mean±SD (n=3).
Caspases are cysteine-aspartate proteases that can trigger apoptosis through a signaling cascade. Caspase-3 is an effector protease that has active cysteine residues that are susceptible to S-nitrosation. The impact of this modification has been variously reported to lead to reversible inhibition and to activation.

Another assay deals with BCL-2. As to the kind of experiment: BCL-2 expression. The class given is cell-based. The conditions noted are these: FIG. 18.
Another assay has as its system ER-α. As to the kind of experiment: ER-α levels (mRNA of ER1) in ER-α(−) cells. The format is cell-based. As to conditions: FIG. 20.
The subject of another assay is prostaglandin E2 (PGE2). As to conditions: cited from earlier work.

Molecules are shown by their SMILES.

In the case of `CCN(CC)[N+]([O-])=NOCOC(=O)c1ccccc1OC(C)=O` [DEA/NO-aspirin, O2-(Acetylsalicyloyloxymethyl)-1-(N,N-Diethylamino)-diazen-1-ium-1,2-diolate], the “DNA damage (Comet assay)” value in the assay on MDA-MB-231 cells was “did not differ from the DMSO-treated negative control”. Moreover, the “level of cleaved PARP” value in assay [1] (75 μM) is recorded as “relatively short-lived”. Also, in the assay with caspase-3, the caspase-3 activity result was “more modest in MDA-MB-231 and MCF7 cells”.

As for `CC(=O)Oc1ccccc1C(=O)OCON=[N+]([O-])NC(C)C` [IPA/NO-aspirin, O2-(Acetylsalicyloyloxymethyl)-1-(N-isopropylamino)-diazen-1-ium-1,2-diolate], in the assay with BCL-2, the BCL-2 expression entry was “inhibits the aspirin effect”. The ER-α levels result in the assay on ER-α is “inhibit the aspirin effect”. The “level of cleaved PARP” value in assay [1] (50 μM) is listed as “increases the level of cleaved PARP in a longer-term fashion”. Besides, the caspase-3 activity entry in the assay with caspase-3 was “activated caspase-3 in all three breast cancer lines”. The “level of PGE2” value with prostaglandin E2 (PGE2) was “reduction in PGE2 levels”.
